Patent US20100256040A1 (priority 2001, published 2010)
Read-outs that look alike come from different tables or passages of the source. Where a SMILES comes first, the peptide text is derived from it. Where no end group is shown, it is not given here.

How the values were obtained:
HIV-1 = assay: microbe, parasite or virus in culture
Description: Fresh human blood was obtained commercially from Interstate Blood Bank, Inc. (Memphis, Tenn.). The lymphotropic clinical isolate HIV-1ROJO was obtained from a pediatric patient attending the AIDS Clinic at the University of Alabama at Birmingham. The laboratory-adapted HIV-1IIIB strain was propagated and tittered in fresh human PBMCs; pre-titered aliquots of HIV-1ROJO and Hiv-1IIIB were removed from the freezer (−80° C.) and thawed rapidly to room temperature in a biological safety cabinet immediately before use. Phytohemagglutinin (PHA-P) was obtained from Sigma (St. Louis, Mo.) and recombinant IL-2 was obtained from Amgen (San Francisco, Calif.).
Fresh human PBMCs were isolated from screened donors, seronegative for HIV and HBV. Leukophoresed blood was diluted 1:1 with Dulbecco's phosphate buffered saline (PBS), layered over 14 mL of Ficoll-Hypaque density gradient in a 50 mL centrifuge tube and then centrifuged for 30 minutes at 600×g. Banded PBMCs were aspirated from the resulting interface and subsequently washed 2× with PBS by low speed centrifugation. After the final wash, cells were enumerated by trypan blue exclusion and re-suspended at 1×10^7 cells/mL in RPMI 1640 supplemented with 15% Fetal Bovine Serum (FBS), 2 mM L-glutamine, 4 μg/mL PHA-P. The cells were allowed to incubate for 48-72 hours at 37° C. After incubation, PBMCs were centrifuged and reset in RPMI 1640 with 15% FBS, 2 mM L-glutamine, 100 U/ml penicillin, 100 μg/mL streptomycin, 10 μg/mL gentamycin, and 20 U/mL recombinant human IL-2. PBMCs were maintained in this medium at a concentration of 1-2×10^6 cells/mL with biweekly medium changes until used in the assay protocol.
For the standard PBMC assay, PHA-P stimulated cells from at least two normal donors were pooled, diluted in fresh medium to a final concentration of 1×10^6 cells/mL, and plated in the interior wells of 96 well round bottom microplate at 50 μL/well (5×10^4 cells/well). Test drug dilutions were prepared at a 2× concentration in microtiter tubes and 100 μL of each concentration was placed in appropriate wells in a standard format. 50 μl, of a predetermined dilution of virus stock was placed in each test well (final MOI≈0.1). Wells with cells and virus alone were used for virus control. Separate plates were prepared identically without virus for drug cytotoxicity studies using an XTT assay system. The PBMC cultures were maintained for seven days following infection, at which time cell-free supernate samples were collected and assayed for reverse transcriptase activity as described below.
A microtiter based reverse transcriptase (RT) reaction was utilized. See Buckheit et al., AIDS Research and Human Retroviruses 7:295-302 (1991). Tritiated thymidine triphosphate (NEN) (TTP) was resuspended in distilled H2O at 5 Ci/ml. Poly rA and oligo dT were prepared as a stock solution which was kept at −20° C. The RT reaction buffer was prepared fresh on a daily basis and consists of 125 μl 1M EGTA, 125 μl dH2O, 110 μl 10% SDS, 50 μl 1M Tris (pH 7.4), 50 μl 1M DTT, and 40 μl 1M MgCL2. These three solutions were mixed together in a ratio of 2 parts TTP, 1 part poly rA:oligo dT, and 1 part reaction buffer. Ten microliters of this reactions mixture was placed at a round bottom microtiter plate and 15 μl of virus containing supernatant was added and mixed. The plate was incubated at 37° C. in a water bath with a solid support to prevent submersion of the plate and incubated for 60 minutes. Following reaction, the reaction volume was spotted onto pieces of DE81 paper, washed 5 times 5 minutes each in a 5% sodium phosphate buffer, 2 times 1 minute each in distilled water, 2 times for 1 minute each in 70% ethanol, and then dried. Opti-Fluor-O (Packard) was added to each sample and incorporated radioactivity was quantified utilizing a Wallac 1450 MicroBeta Plus liquid scintillation counter.

[1] = Cytotoxicity measurement by MTS staining in PBMC cultures; format: cell-based; details: human
Description: At assay termination the assay plates were stained with the soluble tetrazolium-based dye MTS (CellTiter Reagent, Promega) to determine cell viability and quantify compound toxicity. MTS is metabolized by the mitochondria enzymes of metabolically active cells to yield a soluble formazan product, allowing the rapid quantitative analysis cell viability and compound cytotoxicity. […] At termination of the assay, 20 μl of MTS reagent was added per well. The wells were incubated overnight for the HIV cytoprotection assay at 37° C. The incubation intervals were chosen based on empirically determined times for optimal dye reduction in each cell type. Adhesive plate sealers were used in place of the lids, the sealed plate was inverted several times to mix the soluble formazan product and the plate was read spectrophotometrically at 490 nm with a Molecular Devices Vmax plate reader.

Full length Tsg101 = target: T1, Full length Tsg101 (Homo sapiens, UniProt Q99816); assay: Yeast two-hybrid liquid culture β-galactosidase assay; format: binding; details: p6 point mutants
T1 construct: expressed in transfected cells
T1 sequence (Q99816 1-390): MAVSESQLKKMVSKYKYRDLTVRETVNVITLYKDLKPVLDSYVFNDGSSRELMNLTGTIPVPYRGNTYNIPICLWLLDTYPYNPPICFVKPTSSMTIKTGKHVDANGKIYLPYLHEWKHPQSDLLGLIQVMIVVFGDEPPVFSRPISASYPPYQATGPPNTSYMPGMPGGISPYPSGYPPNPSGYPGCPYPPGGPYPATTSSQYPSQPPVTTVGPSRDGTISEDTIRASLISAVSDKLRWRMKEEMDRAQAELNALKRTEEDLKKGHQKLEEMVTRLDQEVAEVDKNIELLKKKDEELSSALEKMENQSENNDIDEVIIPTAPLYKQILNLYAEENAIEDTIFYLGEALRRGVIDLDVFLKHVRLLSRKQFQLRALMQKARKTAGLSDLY
Description: The interactions between TSG101 and wild-type p6gag (WT) or the p6gag PTAP mutants were further quantitated by performing liquid culture β-galactosidase assays. Cultures were grown overnight in synthetic media (-Leu, -Trp, +glucose) in 96 well plates, normalized for optical density, and lysed by addition of 6× lysis/substrate solution in 6×Z-buffer (60 mM KCl, 6 mM MgSO4, 360 mM Na2HPO4, 240 mM NaH2PO4, 6 mg/ml CPRG, 0.12 U/ml lyticase, 0.075% NP-40). Cultures were incubated for 2 hr at 37° C., clarified by centrifugation, and the optical absorbance of each supernatant was measured (575 nm). Full length Tsg101 bound wild-type p6 in the two-hybrid liquid culture assay, resulting in high levels of β-galactosidase activity (>300-fold over background). […] Each of these point mutations also arrests HIV-1 budding at a late stage (Huang et al. 1995).

Tsg101 = target: T2, Tsg101 (Homo sapiens, UniProt Q99816); assay: Yeast two-hybrid filter lift assay for β-Gal activity (Tsg101 / p6gag interaction); format: binding; set-up: key to Interactions Between Tsg101 and p6gag (β-Gal activity): +: Positive β-Gal activity indicates that the p6gag wild type or mutant protein interacts with Tsg101; details: for ability to bind Tsg101 protein / Tsg101-p6gag interaction (in words): yeast two-hybrid
T2 construct: expressed in transfected cells
Text: Yeast two-hybrid assays were utilized to determine the effect of amino acid substitution mutations in the PTAP motif of HIV p6gag on the interaction between Tsg101 and p6gag. To prepare a yeast two-hybrid activation domain-Tsg101 construct, a DNA fragment encompassing the full-length coding sequence for Tsg101 according to GenBank Accession No. U82130 was obtained by PCR from a human fetal brain cDNA library and cloned into the EcoRI/Pst1 sites of the activation domain parent plasmid GADpN2 (LEU2, CEN4, ARS1, ADH1p-SV40NLS-GAL4 (768-881)-MCS (multiple cloning site)-PGK1t, AmpR, ColE1_ori).
To prepare the yeast two-hybrid DNA binding domain-HIV1 p6gag construct, a DNA fragment corresponding to the HIV1 p6 peptide derived from the HIV1.NL43 strain GAG protein was obtained by PCR from the NL43 containing plasmid R9Δapa and was cloned into the EcoRI/Sal1 sites of the binding domain parent plasmid pGBT.Q. The sequence of the amplified insert is shown in SEQ ID NO:3485. In addition, the amino acid sequence of the HIV-1NYU/BR5 GAG is provided in GenBank under Accession No. AF324493 and is listed in SEQ ID NO:3484.
The following amino acid substitution mutations were introduced by PCR into the HIV1 p6gag sequence in the yeast two-hybrid binding domain-HIV1 p6gag construct described above. The mutations were verified by DNA sequence analysis.
To test the effect of the mutations, yeast cells of the strain Y189 purchased from Clontech (ura3-52 his3*200 ade2-101 trp1-901 leu2-3,112 met gal4 gal80 URA3::GAL1p-lacZ) were co-transformed with the activation domain-Tsg101 construct and one of the binding domain-mutant p6gag constructs or the binding domain-wild type p6gag construct. Filter lift assays for β-Gal activity were conducted by lifting the transformed yeast colonies with filters, lysing the yeast cells by freezing and thawing, and contacting the lysed cells with X-Gal. […] All binding domain constructs were also tested for self-activation of β-Gal activity.

[2] = fresh human PBMCs, seven days following infection, RT activity
[3] = PBMC plates without virus, tetrazolium dye staining, read-out: TC50

| Compound | Comments (anti-HIV activity) (HIV-1; fresh human PBMCs) | IC50 (HIV-1; [2]) [µM] | CC50 at 7 days [1, 3] [µM] | β-galactosidase activity (in words) (Full length Tsg101) | ability to bind Tsg101 protein / Tsg101-p6gag interaction (in words) (Tsg101) | further results |
| --- | --- | --- | --- | --- | --- | --- |
| Cc1cn([C@H]2C[C@H](N=[N+]=[N-])[C@@H](CO)O2)c(=O)[nH]c1=O [AZT, 3′-Azido-3′-deoxythymidine, reference compound] | Control; Highly |  |  |  |  | IC50 (HIV-1; Human immunodeficiency virus 1, PBMC, 168 h): 0.008 µM; CC50 at 7 days [1]: > 1 µM |
| C[C@H](NC(=O)[C@@H](NC(=O)[C@@H]1CCCN1C(=O)[C@H](CCC(=O)O)NC(=O)[C@@H]1CCCN1C(=O)[C@H](CCCNC(=N)N)NC(=O)[C@H](CCCNC(=N)N)NC(=O)[C@H](CCCNC(=N)N)NC(=O)[C@H](CCCNC(=N)N)NC(=O)[C@H](CCCNC(=N)N)NC(=O)[C@H](CCCNC(=N)N)NC(=O)[C@H](CCCNC(=N)N)NC(=O)[C@H](CCCNC(=N)N)NC(=O)[C@@H](N)CCCNC(=N)N)[C@@H](C)O)C(=O)N1CCC[C@H]1C(=O)N[C@@H](CCC(=O)O)C(=O)N[C@@H](CCC(=O)O)C(=O)O [MPI-PEP1, NH2-(R)9-PEPTAPEE-COOH] (H-RRRRRRRRRPEPTAPEE-OH) | Active | 21.7 | > 200 |  |  |  |
| CC(C)C[C@H](NC(=O)[C@H](C)NC(=O)[C@@H](NC(=O)[C@@H]1CCCN1C(=O)[C@H](CCC(=O)O)NC(=O)[C@@H]1CCCN1C(=O)[C@H](CCCNC(=N)N)NC(=O)[C@H](CCCNC(=N)N)NC(=O)[C@H](CCCNC(=N)N)NC(=O)[C@H](CCCNC(=N)N)NC(=O)[C@H](CCCNC(=N)N)NC(=O)[C@H](CCCNC(=N)N)NC(=O)[C@H](CCCNC(=N)N)NC(=O)[C@H](CCCNC(=N)N)NC(=O)[C@@H](N)CCCNC(=N)N)[C@@H](C)O)C(=O)N[C@@H](CCC(=O)O)C(=O)N[C@@H](CCC(=O)O)C(=O)O [MPI-PEP2, NH2-(R)9-PEPTALEE-COOH] (H-RRRRRRRRRPEPTALEE-OH) | Inactive | > 200 | > 200 |  |  |  |
| C[C@H](NC(=O)[C@@H](NC(=O)[C@@H]1CCCN1C(=O)[C@H](CCC(=O)O)NC(=O)[C@@H]1CCCN1C(=O)[C@@H](N)CCCNC(=N)N)[C@@H](C)O)C(=O)N1CCC[C@H]1C(N)=O [MPI-PEP3, NH2-RPEPTAP-CO-NH2] (H-RPEPTAP-NH2) | Inactive | > 200 | > 200 |  |  |  |
| p6(A9R) (LQSRPEPTRPPEESFRFGEETTTPSQKQEPIDKELYPLASLRSLFGSDPSSQ; not fully specified) |  |  |  | reduced β-galactosidase activity to background levels | abolishes the p6 binding affinity |  |
| p6(E6G) (LQSRPGPTAPPEESFRFGEETTTPSQKQEPIDKELYPLASLRSLFGSDPSSQ; not fully specified) |  |  |  |  | did not result in the elimination of the Tsg101-p6gag interaction | Interactions Between Tsg101 and p6gag (β-Gal activity) (Tsg101; yeast Y189 co-transformed with activation domain-Tsg101 and binding domain-p6gag construct, filter lift, X-Gal): +; ability to bind Tsg101 protein / Tsg101-p6gag interaction (in words) (Tsg101; listed as E6G): capable of binding |
| p6(P7L) (LQSRPELTAPPEESFRFGEETTTPSQKQEPIDKELYPLASLRSLFGSDPSSQ; not fully specified) |  |  |  | reduced β-galactosidase activity to background levels | abolishes the p6 binding affinity |  |
| p6(P10L) (LQSRPEPTALPEESFRFGEETTTPSQKQEPIDKELYPLASLRSLFGSDPSSQ; not fully specified) |  |  |  | reduced β-galactosidase activity to background levels | abolishes the p6 binding affinity |  |
